Read-outs that look alike come from different tables or passages of the source.
Columns and labels:
[1] = system: SCLC strain SHP-77; experiment: MTT assay for cell survival, SCLC SHP-77 in vitro; assay type: cell-based, human; conditions: ED50 for killing of SCLC strain SHP-77 in vitro, 4 days, 0 = no detectable activity
[2] = system: PC3 PC cells; experiment: Inhibition of PC3 tumor growth in vivo in nude mice; design: species or system athymic nude mice; key to PC3 In vivo % inhib.: an IC50 value of “0” represents no detectable anti-cancer activity for a drug in a given cell line; “Stim.” indicates the observation of a stimulatory activity on the growth of the cancer cell line; conditions: percent inhibition of tumor growth in nude mice; prostate cancer; i.p. 5 mg/kg/every second day or 10 mg/kg/every fourth day
Experimental: Compounds having high in vitro cytotoxic activity were tested against implanted tumors in vivo. Athymic nude mice were implanted subcutaneously with suspensions (2 million SHP-77 SCLC cells, 1 million A549 NSCLC cells or 1.5 million PC3 PC cells) in Matrigel suspension. On the eighth day after tumor implantation groups of 5 mice bearing implants were injected intraperitoneally with the compounds being tested at 5 mg/kg/every second day or at 10 mg/kg/every fourth day; control animals were injected with an equal volume of isotonic saline. Less soluble compounds were initially dissolved in dimethyl sulfoxide (DMSO) and diluted with medium. In those cases the control injections contained the same concentration of DMSO. Tumor size was measured with a caliper three times per week. Tumor volume was calculated by the formula: Volume(cc)=3.14×(length)×(width)^2/6 At autopsy tumors were removed and weighed. Tumor inhibition was calculated on both weight and measurement basis. In each Table, an IC50 value of “0” represents no detectable anti-cancer activity for a drug in a given cell line and “Stim.” indicates the observation of a stimulatory activity on the growth of the cancer cell line.

O=C(N[C@@H]1CN2CCC1CC2)C(Cc1ccc(OCc2c(Cl)cccc2Cl)cc1)NC(=O)C(c1ccccc1)C1CCCCC1 (single isomer, unassigned) [M-1550 #1]
IC50 ([1]; read-out: SCLC SHP-77 IC50): 2.5 µM | PC3 In vivo % inhib. [2]: 36%

O=C(N[C@@H]1CN2CCC1CC2)C(Cc1ccc(OCc2c(Cl)cccc2Cl)cc1)NC(=O)C(c1ccccc1)C1CCCCC1 (single isomer, unassigned) [M-1550 #2]
IC50 ([1]; read-out: SCLC SHP-77 IC50): 4 µM | PC3 In vivo % inhib. [2]: Stim.

CC1(C)CC(NC(=O)C(NC(=O)C=Cc2c(F)c(F)c(F)c(F)c2F)C2Cc3ccccc3C2)CC(C)(C)N1 (stereo not drawn) [Analog M-1052, F5c-Igl-Atmp]
IC50 ([1]; read-out: SHP-77 In vitro IC50): 7.3 µM | PC3 In vivo % inhib. [2]: 27%

CC1(C)CC(NC(=O)C(Cc2c(F)c(F)c(F)c(F)c2F)NC(=O)C=Cc2c(F)c(F)c(F)c(F)c2F)CC(C)(C)N1 (stereo not drawn) [Analog M-1054, F5c-F5F-Atmp]
IC50 ([1]; read-out: SHP-77 In vitro IC50): 4.6 µM | PC3 In vivo % inhib. [2]: 47%

CC1(C)CC(NC(=O)C(Cc2ccc(OCc3c(Cl)cccc3Cl)cc2)NS(=O)(=O)c2c(F)c(F)c(F)c(F)c2F)CC(C)(C)N1 (stereo not drawn) [Analog M-1092, F5BS-OC2Y-Atmp]
IC50 ([1]; read-out: SHP-77 In vitro IC50): 14 µM | PC3 In vivo % inhib. [2]: Stim.

CC1(C)CC(NC(=O)C(Cc2ccc(OCc3c(Cl)cccc3Cl)cc2)NC(=S)Nc2c(F)c(F)c(F)c(F)c2F)CC(C)(C)N1 (stereo not drawn) [Analog M-1094, F5PT-OC2Y-Atmp]
IC50 ([1]; read-out: SHP-77 In vitro IC50): 3.2 µM | PC3 In vivo % inhib. [2]: 52%

CC1(C)CC(NC(=O)[C@@H](Cc2ccc(OCc3c(Cl)cccc3Cl)cc2)NC(=O)/C=C/c2c(F)c(F)c(F)c(F)c2F)CC(C)(C)N1 [Analog M-1108, F5c-D-OC2Y-Atmp]
IC50 ([1]; read-out: SHP-77 In vitro IC50): > 60 µM | PC3 In vivo % inhib. [2]: 46%

CC1(C)CC(NC(=O)C(Cc2ccc(C#N)cc2)NC(=O)C=Cc2c(F)c(F)c(F)c(F)c2F)CC(C)(C)N1 (stereo not drawn) [Analog M-1110, F5c-PCNF-Atmp]
IC50 ([1]; read-out: SHP-77 In vitro IC50): 0.9 µM | PC3 In vivo % inhib. [2]: 54%

CC1(C)CC(NC(=O)C(Cc2ccc([N+](=O)[O-])cc2)NC(=O)C=Cc2c(F)c(F)c(F)c(F)c2F)CC(C)(C)N1 (stereo not drawn) [Analog M-1112, F5c-PNF-Atmp]
IC50 ([1]; read-out: SHP-77 In vitro IC50): 30 µM | PC3 In vivo % inhib. [2]: 24%

CC1(C)CC(NC(=O)C(Cc2c[nH]c3ccccc23)NC(=O)C=Cc2c(F)c(F)c(F)c(F)c2F)CC(C)(C)N1 (stereo not drawn) [Analog M-1114, F5c-Trp-Atmp]
IC50 ([1]; read-out: SHP-77 In vitro IC50): > 60 µM | PC3 In vivo % inhib. [2]: 28%

CC1(C)CC(NC(=O)C(Cc2ccc(OCc3c(Cl)cccc3Cl)cc2)NC(=O)C(C2CCCCC2)C2CCCCC2)CC(C)(C)N1 (stereo not drawn) [Analog M-1116, Dca-OC2Y-Atmp]
IC50 ([1]; read-out: SHP-77 In vitro IC50): 7.5 µM | PC3 In vivo % inhib. [2]: 19%

CC1(C)CC(NC(=O)C(Cc2ccc(Br)cc2)NC(=O)C=Cc2c(F)c(F)c(F)c(F)c2F)CC(C)(C)N1 (stereo not drawn) [Analog M-1144, F5c-PBF-Atmp]
IC50 ([1]; read-out: SHP-77 In vitro IC50): 7.2 µM | PC3 In vivo % inhib. [2]: 20%

CC1(C)CC(NC(=O)C(Cc2ccc(F)cc2)NC(=O)C=Cc2ccco2)CC(C)(C)N1 (stereo not drawn) [Analog M-1154, 2-Fa-PFF-Atmp]
IC50 ([1]; read-out: SHP-77 In vitro IC50): > 60 µM | PC3 In vivo % inhib. [2]: Stim

O=C(C=Cc1c(F)c(F)c(F)c(F)c1F)NC(Cc1ccc(F)cc1)C(=O)NC1CCN(Cc2ccccc2)CC1 (stereo not drawn) [Analog M-1156, F5c-PFF-Abzp]
IC50 ([1]; read-out: SHP-77 In vitro IC50): 7.5 µM | PC3 In vivo % inhib. [2]: 56%

CC1(C)CC(NC(=O)C(Cc2ccc(-c3ccccc3)cc2)NC(=O)C(c2ccc(Cl)cc2)c2ccc(Cl)cc2)CC(C)(C)N1 (stereo not drawn) [Analog M-1244, Bcpa-Bip-Atmp]
IC50 ([1]; read-out: SHP-77 In vitro IC50): 1.3 µM | PC3 In vivo % inhib. [2]: 59%

O=C(NC(Cc1ccc2ccccc2c1)C(=O)N1CCC(N2CCCCC2)CC1)C(c1ccc(Cl)cc1)c1ccc(Cl)cc1 (stereo not drawn) [Analog M-1246, Bcpa-Nal-Pipp]
IC50 ([1]; read-out: SHP-77 In vitro IC50): 3.6 µM | PC3 In vivo % inhib. [2]: Stim

O=C(C=Cc1c(F)c(F)c(F)c(F)c1F)NC(Cc1ccc(-c2ccccc2)cc1)C(=O)N1CCN(c2ccccn2)CC1 (stereo not drawn) [Analog M-1258, F5c-Bip-Pypz]
IC50 ([1]; read-out: SHP-77 In vitro IC50): 48 µM | PC3 In vivo % inhib. [2]: 10%

O=C(C=Cc1c(F)c(F)c(F)c(F)c1F)NC(Cc1ccc(-c2ccccc2)cc1)C(=O)N1CCN(c2ncccn2)CC1 (stereo not drawn) [Analog M-1260, F5c-Bip-Pmpz]
IC50 ([1]; read-out: SHP-77 In vitro IC50): 10 µM | PC3 In vivo % inhib. [2]: 60%

O=C(C=Cc1c(F)c(F)c(F)c(F)c1F)NC(Cc1ccc(-c2ccccc2)cc1)C(=O)N1CC2CC1CN2Cc1ccccc1 (stereo not drawn) [Analog M-1268, F5c-Bip-Bdbh]
IC50 ([1]; read-out: SHP-77 In vitro IC50): 3 µM | PC3 In vivo % inhib. [2]: 36%

CC1(C)CC(NC(=O)C(Cc2ccc(OCc3c(Cl)cccc3Cl)cc2)NC(=O)COc2c(F)c(F)c(F)c(F)c2F)CC(C)(C)N1 (stereo not drawn) [Analog M-1358, F5po-OC2Y-Atmp]
IC50 ([1]; read-out: SCLC SHP-77 IC50): 4.1 µM | PC3 In vivo % inhib. [2]: 30%

CC1(C)CC(NC(=O)C(Cc2ccc(OCc3c(Cl)cccc3Cl)cc2)NC(=O)c2c(F)c(F)c(F)c(F)c2F)CC(C)(C)N1 (stereo not drawn) [Analog M-1360, F5bz-OC2Y-Atmp]
IC50 ([1]; read-out: SCLC SHP-77 IC50): 4.1 µM | PC3 In vivo % inhib. [2]: Stim.

— patent US7858349B2, “Anti-cancer compounds” (The Regents of the University of Colorado, priority 1999, dated 2010)
